In patent US20240182480A1, “5-HT2A AND/OR 5-HT2C RECEPTOR AGONISTS” (priority 2021, published 2024):
pEC50: −log10 of the molar value. Read-outs that look alike come from different tables or passages of the source.

Legend:
5-HT2B = target: T1, 5-HT2B (Homo sapiens, UniProt P41595); assay: cell-based; conditions: FLIPR calcium assay, agonist mode
T1 construct: expressed in transfected cells; the paragraph before it names a CHO-K1-mt aequorin Gα16 cell line

5-HT2A = target: T2, 5-HT2A (Homo sapiens, UniProt P28223); assay: cell-based; conditions: FLIPR calcium assay, agonist mode
T2 construct: expressed in transfected cells; the paragraph before it names a CHO-K1-mt aequorin Gα16 cell line

5-HT2C = target: T3, 5-HT2C (Homo sapiens, UniProt P28335); assay: 5-HT2C pharmacological screening by FLIPR assay in agonist mode; assay type: cell-based
T3 construct: expressed in transfected cells; the paragraph before it names a CHO-K1-mt aequorin Gα16 cell line
T3 sequence (P28335 33-458): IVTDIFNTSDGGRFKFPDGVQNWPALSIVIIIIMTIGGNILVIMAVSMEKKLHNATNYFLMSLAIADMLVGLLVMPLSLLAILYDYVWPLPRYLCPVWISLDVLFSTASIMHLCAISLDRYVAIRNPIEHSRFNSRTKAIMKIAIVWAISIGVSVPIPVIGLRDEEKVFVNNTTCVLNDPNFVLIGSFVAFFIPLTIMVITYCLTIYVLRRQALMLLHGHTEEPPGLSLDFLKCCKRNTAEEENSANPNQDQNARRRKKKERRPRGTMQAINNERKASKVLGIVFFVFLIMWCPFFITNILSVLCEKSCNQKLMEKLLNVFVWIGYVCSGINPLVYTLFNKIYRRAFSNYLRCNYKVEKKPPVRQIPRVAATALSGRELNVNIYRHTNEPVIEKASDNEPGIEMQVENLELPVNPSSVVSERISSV

[1] = 5-HT2B (EC50, % max activity), class symbols
[2] = 5-HT2B, (EC50, % max activity), approximate values
[3] = 5-HT2A (EC50, % max activity), class symbols
[4] = 5-HT2A, (EC50, % max activity), approximate values
[5] = FLIPR calcium assay, agonist mode, approximate values, read-out: 5-HT2C, (EC50, % max activity)
[6] = FLIPR calcium assay, agonist mode, class symbols, read-out: 5-HT2C (EC50, % max activity)
[7] = class symbols, read-out: 5-HT2B (EC50, % max activity)
[8] = class symbols, read-out: 5-HT2A (EC50, % max activity)

T1 sequence (P41595 whole entry): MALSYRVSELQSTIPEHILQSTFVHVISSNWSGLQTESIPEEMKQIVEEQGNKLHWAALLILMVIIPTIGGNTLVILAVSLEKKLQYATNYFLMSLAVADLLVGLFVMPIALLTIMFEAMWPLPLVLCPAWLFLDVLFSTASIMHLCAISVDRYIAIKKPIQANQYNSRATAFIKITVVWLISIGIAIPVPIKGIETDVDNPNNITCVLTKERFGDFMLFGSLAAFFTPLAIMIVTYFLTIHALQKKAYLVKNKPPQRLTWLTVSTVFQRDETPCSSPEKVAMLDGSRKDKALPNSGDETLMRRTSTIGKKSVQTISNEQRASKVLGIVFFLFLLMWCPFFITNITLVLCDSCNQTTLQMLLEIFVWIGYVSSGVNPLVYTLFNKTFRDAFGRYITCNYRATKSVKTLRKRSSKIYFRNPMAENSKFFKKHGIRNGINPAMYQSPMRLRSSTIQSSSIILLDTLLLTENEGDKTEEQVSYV
T2 sequence (P28223 whole entry): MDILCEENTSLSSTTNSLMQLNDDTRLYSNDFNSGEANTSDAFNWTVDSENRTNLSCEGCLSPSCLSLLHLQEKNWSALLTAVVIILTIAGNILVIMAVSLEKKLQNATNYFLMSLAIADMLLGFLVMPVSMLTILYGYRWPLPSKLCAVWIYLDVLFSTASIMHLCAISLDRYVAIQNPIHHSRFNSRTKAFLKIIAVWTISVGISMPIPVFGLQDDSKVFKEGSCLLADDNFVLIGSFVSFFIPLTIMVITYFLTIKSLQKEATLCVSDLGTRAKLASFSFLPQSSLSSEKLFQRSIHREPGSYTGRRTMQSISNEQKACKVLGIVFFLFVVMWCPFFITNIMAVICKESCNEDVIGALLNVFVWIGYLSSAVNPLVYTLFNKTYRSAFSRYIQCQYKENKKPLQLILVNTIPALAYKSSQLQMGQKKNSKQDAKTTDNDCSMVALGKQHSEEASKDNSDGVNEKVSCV

Row | pEC50 (5-HT2B; [7]) | pEC50 (5-HT2A; [8]) | SMILES | pEC50 (5-HT2B; [1]) | pEC50 (5-HT2A; [3]) | further results
1 | – | – | c1nc2c(nc1N1CCCOCC1)CCNCC2 [Example 1, 4-(6,7,8,9-tetrahydro-5H-pyrazino[2,3-d]azepin-2-yl)-1,4-oxazepane] | < 5.22 | 5.22 to 6.00 | pEC50 (5-HT2B; [2]): < 4.52; pEC50 (5-HT2A; [4]): ~5.70; pEC50 (5-HT2C; [5]): ~7.00; pEC50 (5-HT2C; [6]): > 6.70
2 | – | – | FC1(F)CCN(c2cnc3c(n2)CCNCC3)CC1 [Example 2, 2-(4,4-difluoropiperidin-1-yl)-6,7,8,9-tetrahydro-5H-pyrazino[2,3-d]azepine] | 5.22 to 6.00 | 6.00 to 6.70 | pEC50 (5-HT2B; [2]): ~5.40; pEC50 (5-HT2A; [4]): ~6.05; pEC50 (5-HT2C; [5]): ~6.70; pEC50 (5-HT2C; [6]): > 6.70
3 | 6.00 to 6.70 | 5.22 to 6.00 | FC1CCN(c2cnc3c(n2)CCNCC3)CC1 [Example 4, 2-(4-fluoropiperidin-1-yl)-6,7,8,9-tetrahydro-5H-pyrazino[2,3-d]azepine] | – | – | –
4 | 6.00 to 6.70 | < 5.22 | CN(C)c1cnc2c(n1)CCNCC2 [Example 15, N,N-dimethyl-6,7,8,9-tetrahydro-5H-pyrazino[2,3-d]azepin-2-amine] | – | – | –
5 | 6.00 to 6.70 | < 5.22 | c1nc2c(nc1N1CCCC1)CCNCC2 [Example 16, 2-(pyrrolidin-1-yl)-6,7,8,9-tetrahydrahydro-5H-pyrazino[2,3-d]azepine] | – | – | –
6 | < 5.22 | < 5.22 | FC1CN(c2cnc3c(n2)CCNCC3)C1 [Example 17, 2-(3-fluoroazetidin-1-yl)-6,7,8,9-tetrahydro-5H-pyrazino[2,3-d]azepine] | – | – | –
7 | – | – | c1ccc(COc2cnc3c(n2)CCNCC3)cc1 [Example 18, 2-(benzyloxy)-6,7,8,9-tetrahydro-5H-pyrazino[2,3-d]azepine] | > 6.70 | < 5.22 | –
8 | < 5.22 | < 5.22 | Nc1cnc2c(n1)CCNCC2 [Example 19, 6,7,8,9-tetrahydro-5H-pyrazino[2,3-d]azepin-2-amine] | – | – | –
9 | – | – | Clc1cnc2c(n1)CCNCC2 [Example 20, 2-chloro-6,7,8,9-tetrahydro-5H-pyrazino[2,3-d]azepine] | < 5.22 | < 5.22 | –
10 | – | – | CN1CCc2[nH]c3ncccc3c2CC1 [Example 22, 7-methyl-5,6,7,8,9,10-hexahydropyrido[3′,2′:4,5]pyrrolo[2,3-d]azepine] | < 5.22 | < 5.22 | pEC50 (5-HT2C; 5-HT2C (EC50, % max activity, FLIPR calcium assay, agonist mode), class symbols): < 5.22
